{"source": "patent US20230332232A1", "about": "“COMPOSITIONS AND METHODS FOR DIAGNOSING AND TREATING A DYSTONIA” (Duke University, priority 2020, published 2023)", "key": {"[1]": {"system": "DYT1 knockin (Tor1a^delGAG/+) murine embryonic fibroblasts (MEFs)", "assay": "Untargeted LC/MS/MS proteomics of EVs from DYT1 MEFs exposed 24 hours to drug, compared with untreated DYT1 (Het) MEFs", "assay_type": "cell-based, mouse"}, "[2]": {"system": "wild-type (WT) murine embryonic fibroblasts (MEFs)", "assay": "microRNA-seq of EVs from WT MEFs treated with drug, compared with non-treated WT MEFs", "assay_type": "cell-based, mouse", "details": "for ISRIB Direction Same as dE?: EVs of WT MEFs", "method": "In addition to proteomic analysis, total RNA-seq and microRNA-seq was performed on RNA isolated in parallel from the EV samples of Cohort 2. As with the proteomic analysis, one biological replicate was prepared from 3 distinct biological clonal cell lines for each genotype. Here, EVs were isolated from conditioned cell culture media by 18 hour ultracentrifugation at 100,000 g. RNA was extracted using the Qiagen miRNeasy Micro Kit (Cat. No. 217084) according to the manufacturer's protocol. Two RNA fractions were extracted from each sample, one enriched in coding and non-coding RNA species>200 nt (“Total RNA” fraction) and one enriched for small RNAs<200 nt (“miRNA” fraction).\nRNA samples were then submitted to the Duke Sequencing and Genomic Technologies shared resource for further quality control and sequencing. Samples were assessed for concentration and integrity by Qubit and Fragment Analyzer. The miRNA fractions were 4.16 ng/μL-47.57 ng/μL and total RNA fractions were 3.8 ng/μL-43.6 ng/μL. The small RNA library was prepared using the QIAseq miRNA Library Kit (Cat No./ID: 331505) and sequenced on the Illumina NextSeq 500 High-Output platform with 75 bp single-reads. The total RNA library was prepared using the Illumina TruSeq Stranded Total RNA-seq Kit with Ribozero Gold ribosomal RNA reduction and sequenced on the Illumina NovaSeq 6000 S1 platform with 100 bp paired-end reads. Sequencer lane pooling and read depth are attached in the Excel data summary (See “RNA QC” Tab).\nData processing and analysis were performed in collaboration with the Duke Genomic Analysis and Bioinformatics shared resource. RNA-seq data was processed using the TrimGalore toolkit (http://www.bioinformatics.babraham.ac.uk/projects/trim_galore), which employs Cutadapt(Martin M. (2011) EMBnet.journal. 17(1):10-12) to trim low quality bases and Illumina sequencing adapters from the 3′ end of the reads. Only reads that were 20 nt or longer after trimming were kept for further analysis. Reads were mapped to the mouse genome and transcriptome (Kersey P J, et al. (2012) Nucleic Acids Res. 40(Database issue):D91-97) using the STAR RNA-seq alignment tool (Dobin A, et al. (2013). Bioinformatics. 29(1):15-21). If the reads mapped to a single genomic location, then they were kept for subsequent analysis. Gene counts were compiled using the HTSeq tool (http://www-huber.embl.de/users/anders/HTSeq/). Only genes that had at least 10 reads in any given library were used in subsequent analysis. Normalization and differential expression was carried out using the DESeq26 Bioconductor (Huber W, et al. (2015) Nat Methods. 12(2):115-121) package with the R statistical programming environment (www.r-project.org). The false discovery rate was calculated to control for multiple hypothesis testing and p-values were adjusted to an FDR of 5%.\n694 miRNAs were initially examined with respect to QC, genotype, RTV effects, and ISRIB effects. This subset was the “Full miRNA” subset. FIG. 9A and FIG. 9B show the RTV effect on EV composition in DYT1 cells compared to WT cells for 279 miRNAs, respectively."}, "WT TorsinA": {"system": "WT TorsinA", "details": "cited from earlier work"}, "[3]": {"details": "ISRIB-treated vs non-treated WT MEF EVs"}}, "data": [{"smiles": "O=C(/C=C/c1ccccc1)NC(NC(=S)Nc1cccc2cccnc12)C(Cl)(Cl)Cl", "note": "(stereo not shown) [SAL, Salubrinal]", "values": [{"measurement": "SAL Direction Opposite ISRIB?", "setting": "[1]; EV protein: ATP- binding cassette sub-family [?] member 1", "value": "yes"}, {"measurement": "SAL Direction Opposite ISRIB?", "setting": "[1]; EV protein: Nerine arginine-rich splicing factor [?]", "value": "yes"}]}, {"smiles": "O=C(COc1ccc(Cl)cc1)NC1CCC(NC(=O)COc2ccc(Cl)cc2)CC1", "note": "(stereo not shown) [ISRIB]", "values": [{"measurement": "mmu-miR-147-5p: ISRIB Direction Same as dE?", "setting": "[2]; [3]", "value": "yes"}, {"measurement": "mmu-miR-147-5p: ISRIBvWT Z Score", "setting": "[2]; [3]", "value": "−0.31"}, {"measurement": "mmu-miR-181a-1-3p: ISRIBvWT Z Score", "setting": "[2]; [3]", "value": "−0.20"}, {"measurement": "mmu-miR-331-5p: ISRIBvWT Z Score", "setting": "[2]; [3]", "value": 0.56}, {"measurement": "mmu-miR-668-3p: ISRIBvWT Z Score", "setting": "[2]; [3]", "value": "−1.49"}, {"measurement": "mmu-miR-1930-5p: ISRIB Direction Same as dE?", "setting": "[2]; [3]", "value": "yes"}, {"measurement": "mmu-miR-1930-5p: ISRIBvWT Z Score", "setting": "[2]; [3]", "value": 0.71}, {"measurement": "mmu-miR-1943-5p: ISRIBvWT Z Score", "setting": "[2]; [3]", "value": "−1.07"}, {"measurement": "mmu-miR-1955-5p: ISRIBvWT Z Score", "setting": "[2]; [3]", "value": 1.21}, {"measurement": "mmu-miR-3072-5p: ISRIBvWT Z Score", "setting": "[2]; [3]", "value": 0.00}, {"measurement": "mmu-miR-3076-3p: ISRIBvWT Z Score", "setting": "[2]; [3]", "value": 0.25}, {"measurement": "mmu-miR-3088-3p: ISRIBvWT Z Score", "setting": "[2]; [3]", "value": "−0.45"}, {"measurement": "mmu-miR-6936-3p: ISRIBvWT Z Score", "setting": "[2]; [3]", "value": "−0.38"}, {"measurement": "mmu-miR-7224-3p: ISRIB Direction Same as dE?", "setting": "[2]; [3]", "value": "yes"}, {"measurement": "mmu-miR-7224-3p: ISRIBvWT Z Score", "setting": "[2]; [3]", "value": "−1.07"}, {"measurement": "mmu-miR-467d-3p: ISRIB Direction Same as dE?", "setting": "[2]; [3]", "value": "yes"}, {"measurement": "mmu-miR-467d-3p: ISRIBvWT Z Score", "setting": "[2]; [3]", "value": "−0.71"}, {"measurement": "ISRIB Direction Same as dE?", "setting": "[2]; mmu-let-7f-5p", "value": "yes"}, {"measurement": "ISRIB Direction Same as dE?", "setting": "[2]; mmu-let-7i-5p", "value": "yes"}, {"measurement": "ISRIB Direction Same as dE?", "setting": "[2]; mmu-miR-30e-5p", "value": "yes"}, {"measurement": "ISRIB Direction Same as dE?", "setting": "[2]; mmu-miR-19b-3p", "value": "yes"}, {"measurement": "ISRIB Direction Same as dE?", "setting": "[2]; mmu-miR-22-3p", "value": "yes"}, {"measurement": "ISRIB Direction Same as dE?", "setting": "[2]; mmu-miR-26b-Sp", "value": "yes"}, {"measurement": "ISRIB Direction Same as dE?", "setting": "[2]; mmu-miR-30a-5p", "value": "yes"}, {"measurement": "ISRIB Direction Same as dE?", "setting": "[2]; mmu-miR-30c-5p", "value": "yes"}, {"measurement": "ISRIB Direction Same as dE?", "setting": "[2]; mmu-miR-31-5p", "value": "yes"}, {"measurement": "ISRIB Direction Same as dE?", "setting": "[2]; mmu-miR-34a-5p", "value": "yes"}, {"measurement": "ISRIB Direction Same as dE?", "setting": "[2]; mmu-miR-34c-5p", "value": "yes"}, {"measurement": "ISRIB Direction Same as dE?", "setting": "[2]; mmu-miR-93-5p", "value": "yes"}, {"measurement": "ISRIB Direction Same as dE?", "setting": "[2]; mmu-miR-96-5p", "value": "yes"}, {"measurement": "ISRIB Direction Same as dE?", "setting": "[2]; mmu-miR-103-3p", "value": "yes"}, {"measurement": "ISRIB Direction Same as dE?", "setting": "[2]; mmu-miR-125b-1-3p", "value": "yes"}, {"measurement": "ISRIB Direction Same as dE?", "setting": "[2]; mmu-miR-130b-3p", "value": "yes"}, {"measurement": "ISRIB Direction Same as dE?", "setting": "[2]; mmu-miR-135a-5p", "value": "yes"}, {"measurement": "ISRIB Direction Same as dE?", "setting": "[2]; mmu-miR-140-3p", "value": "yes"}, {"measurement": "ISRIB Direction Same as dE?", "setting": "[2]; mmu-miR-148a-3p", "value": "yes"}, {"measurement": "ISRIB Direction Same as dE?", "setting": "[2]; mmu-miR-182-5p", "value": "yes"}, {"measurement": "ISRIB Direction Same as dE?", "setting": "[2]; mmu-miR-183-5p", "value": "yes"}, {"measurement": "ISRIB Direction Same as dE?", "setting": "[2]; mmu-miR-187-3p", "value": "yes"}, {"measurement": "ISRIB Direction Same as dE?", "setting": "[2]; mmu-miR-192-5p", "value": "yes"}, {"measurement": "ISRIB Direction Same as dE?", "setting": "[2]; mmu-miR-199a-3p", "value": "yes"}, {"measurement": "ISRIB Direction Same as dE?", "setting": "[2]; mmu-miR-199b-3p", "value": "yes"}, {"measurement": "ISRIB Direction Same as dE?", "setting": "[2]; mmu-miR-296-3p", "value": "yes"}, {"measurement": "ISRIB Direction Same as dE?", "setting": "[2]; mmu-miR-298-5p", "value": "yes"}, {"measurement": "ISRIB Direction Same as dE?", "setting": "[2]; mmu-miR-344-3p", "value": "yes"}, {"measurement": "ISRIB Direction Same as dE?", "setting": "[2]; mmu-miR-362-3p", "value": "yes"}, {"measurement": "ISRIB Direction Same as dE?", "setting": "[2]; mmu-miR-362-5p", "value": "yes"}, {"measurement": "ISRIB Direction Same as dE?", "setting": "[2]; mmu-miR-532-5p", "value": "yes"}, {"measurement": "ISRIB Direction Same as dE?", "setting": "[2]; mmu-miR-542-5p", "value": "yes"}, {"measurement": "ISRIB Direction Same as dE?", "setting": "[2]; mmu-miR-671-5p", "value": "yes"}, {"measurement": "ISRIB Direction Same as dE?", "setting": "[2]; mmu-miR-1291", "value": "yes"}, {"measurement": "ISRIB Direction Same as dE?", "setting": "[2]; mmu-miR-3535", "value": "yes"}, {"measurement": "ISRIB Direction Same as dE?", "setting": "[2]; mmu-miR-5121", "value": "yes"}, {"measurement": "ISRIB Direction Same as dE?", "setting": "[2]; mmu-miR-30h-5p", "value": "yes"}, {"measurement": "ISRIB Direction Same as dE?", "setting": "[2]; mmu-miR-344d-3p", "value": "yes"}, {"measurement": "subcellular localization of WT TorsinA", "setting": "WT TorsinA", "value": "alter the normal subcellular localization of WT TorsinA in a way that was more similar to the distribution of dE TorsinA in DYT1"}]}]}
